We go through 16 molecules from article PMC4682886 (ChemMedChem, 2015).

As a reminder, the EC50 is the concentration that produces a half-maximal response.

One test concerns C. albicans susceptible strain HLY4123. The test can be described thus: Dose-response curves of test compounds against C. albicans with fluconazole. The format is cell-based. Particulars: strain HLY4123, in combination with fluconazole.
With `Cc1c(Cl)ccc2c1NC(=O)[C@]21[C@H]2C(=O)N(c3ccccc3)C(=O)[C@H]2[C@@H]2C[C@@H](OC(=O)c3ccccc3)CN21` [Compound 25a, (+)-(3S,3a′S,7′R,8a′S,8b′R)-6-chloro-7-methyl-1′,2,3′-tri oxo-2′-phenyl-2′,3′,3a′,6′,7′,8′,8a′,8b′-octahydro-1′H-spiro[indoline-3,4′-pyrrolo[3,4-a]pyrrolizin]-7′-yl benzoate], the “activity under the conditions of the assay” value is reported as “almost no activity”.

The test is the same for the next values; noted with them: strain HLY4123, in the presence of fluconazole (0.25 μg/mL); mean ± SD of three independent experiments.
With `Cc1c(Cl)ccc2c1NC(=O)[C@]21N[C@H](Cc2ccccc2)[C@@H]2C(=O)N(c3ccccc3)C(=O)[C@@H]21` (racemic) [Compound 13, (±)-(3R,3′R,3a′R,6a′S)-3′-Benzyl-6-chloro-7-methyl-5′-phenyl-2′,3′,3a′, 6a′-tetrahydro-4′H-spiro[indoline-3,1′-pyrrolo[3,4-c]pyrrole]-2,4′,6′ (5′H)-trione], the EC50 worked out at 1 ± 0.5 nM. Same read-out and setting: the value for `Cc1ccc2c(c1C)NC(=O)[C@@]21[C@H]2C(=O)N(c3ccccc3)C(=O)[C@H]2[C@H]2CN(C(=O)OC(C)(C)C)CCN21` (racemic) [Compound 23, (±)-tert-Butyl (3R,3a′R,3b′S,9a′S)-6,7-dimethyl-1′,2,3′-trioxo-2′-phenyl-2′,3′,3a′,3b′,4′,6′,7′,9a′-octahydrospiro[indoline-3,9′-pyrrolo[3′,4′:3,4]pyrrolo[1,2-a]pyrazine]-5′(1′H)-carboxylate] was 5.7 ± 6 nM. The same measure, in the same setting: under `O=C1[C@H]2[C@@H](Cc3ccccc3)N[C@]3(C(=O)N(Cc4ccccc4)c4ccccc43)[C@H]2C(=O)N1Cc1ccccc1` (racemic) [Compound 11, (±)-(3R,3′R,3a′R,6a′S)-1,3′,5′-Tribenzyl-2′,3′,3a′,6a′-tetrahydro-4′H-spi ro[indoline-3,1′-pyrrolo[3,4-c]pyrrole]-2,4′,6′(5′H)-trione] stands > 10000 nM. Same read-out and setting: the value for `Cc1c(Cl)ccc2c1NC(=O)[C@@]21[C@H]2C(=O)N(c3ccccc3)C(=O)[C@H]2[C@H]2CNCCN21` (racemic) [Compound 26, (±)-(3R,3a′R,3b′S,9a′S)-6-chloro-7-methyl-2′-phenyl-3a′,4′,5′,6′,7′,9a′-hexahydrospiro[indoline-3,9′-pyrrolo[3′,4′:3,4]pyrolo[1,2-a]pyrazine]-1′,2,3′(2′H,3b′H)-trione] was ~10000 nM; that for `CC(C)(C)OC(=O)NCCCC[C@H]1N[C@]2(C(=O)Nc3ccccc32)[C@H]2C(=O)N(Cc3ccccc3)C(=O)[C@@H]12` (racemic) [Compound 10, (±)-tert-Butyl (4-((3R,3′R,3a′R,6a′S)-5′-benzyl-2,4′,6′-trioxo-3′,3a′,4′,5′, 6′,6a′-hexahydro-2′H-spiro[indoline-3,1′-pyrrolo[3,4-c]pyrrol]-3′-yl)butyl)carbamate] was > 100000 nM; that for “(±)-tert-Butyl (3R,3a′R,3b′S,9a′S)-2′-benzyl-1′,2,3′-trioxo-2′,3′,3a′,3b′, 4′,6′,7′,9a′-octahydrospiro[indoline-3,9′-pyrrolo[3′,4′:3,4]pyrrolo[1,2-a]pyrazine]-5′(1′H)-carboxylate [Compound 19]” was > 100000 nM. As to `Cc1c(Cl)ccc2c1NC(=O)[C@@]21[C@H]2C(=O)N(c3cc(C(F)(F)F)cc(C(F)(F)F)c3)C(=O)[C@H]2[C@H]2CN(C(=O)OC(C)(C)C)CCN21` (racemic) [Compound 16, (±)-tert-Butyl (3R,3a′R,3b′S,9a′S)-2′-(3,5-bis(trifluoromethyl)phenyl)-6-chloro-7-methyl-1′,2,3′-trioxo-2′,3′,3a′,3b′,4′,6′,7′,9a′-octahydrospiro [indoline-3,9′-pyrrolo[3′,4′:3,4]pyrrolo[1,2-a]pyrazine]-5′(1′H)-carboxy late], the EC50 worked out at 23.7 ± 10 nM.

As to `O=C1[C@H]2[C@@H](Cc3ccccc3)N[C@]3(C(=O)N(Cc4ccccc4)c4ccccc43)[C@H]2C(=O)N1c1ccccc1` (racemic) [Compound 12, (±)-(3R,3′R,3a′R,6a′S)-1,3′-Dibenzyl-5′-phenyl-2′,3′,3a′,6a′-tetrahydro-4′H-spiro[indoline-3,1′-pyrrolo[3,4-c]pyrrole]-2,4′,6′(5′H)-trione], the EC50 was > 100000 nM. On to `Cc1c(Cl)ccc2c1NC(=O)[C@@]21[C@H]2C(=O)N(c3ccccc3)C(=O)[C@H]2[C@H]2CN(C(=O)CCc3ccccc3)CCN21` (racemic) [Compound 29, (±)-(3R,3a′R,3b′S,9a′S)-6-chloro-7-methyl-2′-phenyl-5′-(3-phenylpropanoyl)-3a′,4′,5′,6′,7′,9a′-hexahydrospiro[indoline-3,9′-pyrrolo[3′,4′:3,4]pyrrolo[1,2-a]pyrazine]-1′,2,3′(2′H,3b′H)-trione], for which the concentration for a half-maximal effect (EC50) is 18.1 ± 4 nM. `Cc1cccc2c1NC(=O)[C@@]21[C@H]2C(=O)N(c3ccccc3)C(=O)[C@H]2[C@H]2CN(C(=O)OC(C)(C)C)CCN21` (racemic) [Compound 22, (±)-tert-Butyl (3R,3a′R,3b′S,9a′S)-7-methyl-1′,2,3′-trioxo-2′-phenyl-2′, 3′,3a′,3b′,4′,6′,7′,9a′-octahydrospiro[indoline-3,9′-pyrrolo[3′,4′:3,4]pyrrolo[1,2-a]pyrazine]-5′(1′H)-carboxylate]: the EC50 came out at 213 ± 80 nM. Regarding `Cc1c(Cl)ccc2c1NC(=O)[C@@]21[C@H]2C(=O)N(c3ccccc3)C(=O)[C@H]2[C@H]2CN(C(=O)OC(C)(C)C)CCN21` (racemic) [Compound 14, (±)-tert-Butyl (3R,3a′R,3b′S,9a′S)-6-chloro-7-methyl-1′,2,3′-trioxo-2′-phenyl-2′,3′,3a′,3b′,4′,6′,7′,9a′-octahydrospiro[indoline-3,9′-pyrrolo[3′, 4′:3,4]pyrrolo[1,2-a]pyrazine]-5′(1′H)-carboxylate], the EC50 amounted to 5.6 ± 3 nM. Still for that read-out and setting: under `Cc1c(Cl)ccc2c1NC(=O)[C@@]21[C@H]2C(=O)N(c3ccc(F)cc3)C(=O)[C@H]2[C@H]2CN(C(=O)OC(C)(C)C)CCN21` (racemic) [Compound 15, (±)-tert-Butyl (3R,3a′R,3b′S,9a′S)-6-chloro-2′-(4-fluorophenyl)-7-methyl-1′,2,3′-trioxo-2′,3′,3a′,3b′,4′,6′,7′,9a′-octahydrospiro[indoline-3,9′-pyrrolo[3′,4′:3,4]pyrrolo[1,2-a]pyrazine]-5′(1′H)-carboxylate] stands 37 ± 1 nM. As for `O=C1[C@H]2[C@@H](Cc3c[nH]c4ccccc34)N[C@]3(C(=O)Nc4ccccc43)[C@H]2C(=O)N1Cc1ccccc1` (racemic) [Compound 9, (±)-(3R,3′R,3a′R,6a′S)-3′-((1H-Indol-3-yl)methyl)-5′-benzyl-2′,3′,3a′,6a′-tetrahydro-4′H-spiro[indoline-3,1′-pyrrolo[3,4-c]pyrrole]-2,4′,6′(5′H)-trione], the 50% effective concentration (EC50) is ~10000 nM.

For `O=C1[C@H]2[C@@H](Cc3ccccc3)N[C@]3(C(=O)Nc4ccccc43)[C@H]2C(=O)N1Cc1ccccc1` (racemic) [Compound 8, (±)-(3R,3′R,3a′R,6a′S)-3′,5′-Dibenzyl-2′,3′,3a′,6a′-tetrahydro-4′H-spiro [indoline-3,1′-pyrrolo[3,4-c]pyrrole]-2,4′,6′(5′H)-trione], the concentration giving a half-maximal response (EC50) was ~10000 nM. Same read-out and setting: the value for `COC(=O)CCCCCCCCC(=O)N1CCN2[C@H](C1)[C@@H]1C(=O)N(c3ccccc3)C(=O)[C@@H]1[C@@]21C(=O)Nc2c1ccc(Cl)c2C` (racemic) [Compound 27, (±)-methyl 10-((3R,3a′R,3b′S,9a′S)-6-chloro-7-methyl-1′,2,3′-trioxo-2′-phenyl-2′,3′,3a′,3b′,4′,6′,7′,9a′-octahydrospiro [indoline-3,9′-pyrrolo[3′,4′:3,4]pyrrolo[1,2-a]pyrazin]-5′(1′H)-yl)-10-oxodecanoate] was 37.9 ± 9 nM.
